From US10179770B2, “Quinolines derivatives as novel anticancer agents” (GENOSCIENCE PHARMA, priority 2013, dated 2019)

How the values were obtained:
Assay in all cases: NCI-60 screen (SRB)
Assay type in all cases: cell-based
DU-145 = DU-145 (Prostate)
Method: (§1) The human tumor cell lines of the cancer screening panel are grown in RPMI 1640 medium containing 5% fetal bovine serum and 2 mM L-glutamine. For a typical screening experiment, cells are inoculated into 96 well microtiter plates in 100 μL at plating densities ranging from 5,000 to 40,000 cells/well depending on the doubling time of individual cell lines. After cell inoculation, the microtiter plates are incubated at 37° C., 5% CO2, 95% air and 100% relative humidity for 24 h prior to addition of experimental drugs.
(§2) After 24 h, two plates of each cell line are fixed in situ with TCA, to represent a measurement of the cell population for each cell line at the time of drug addition (Tz). Experimental drug is solubilized in dimethyl sulfoxide at 400-fold the desired final maximum test concentration and stored frozen prior to use. At the time of drug addition, an aliquot of frozen concentrate is thawed and diluted to twice the desired final maximum test concentration with complete medium containing 50 μg/ml gentamicin. Additional four, 10-fold or ½ log serial dilutions are made to provide a total of five drug concentrations plus control. Aliquots of 100 μl of these different drug dilutions are added to the appropriate microtiter wells already containing 100 μl of medium, resulting in the required final drug concentrations.
(§3) Following drug addition, the plates are incubated for an additional 48 h at 37° C., 5% CO2, 95% air, and 100% relative humidity. For adherent cells, the assay is terminated by the addition of cold TCA. Cells are fixed in situ by the gentle addition of 50 μl of cold 50% (w/v) TCA (final concentration, 10% TCA) and incubated for 60 minutes at 4° C. The supernatant is discarded, and the plates are washed five times with tap water and air dried. Sulforhodamine B (SRB) solution (100 μl) at 0.4% (w/v) in 1% acetic acid is added to each well, and plates are incubated for 10 minutes at room temperature. After staining, unbound dye is removed by washing five times with 1% acetic acid and the plates are air dried. Bound stain is subsequently solubilized with 10 mM trizma base, and the absorbance is read on an automated plate reader at a wavelength of 515 nm. For suspension cells, the methodology is the same except that the assay is terminated by fixing settled cells at the bottom of the wells by gently adding 50 μl of 80% TCA (final concentration, 16% TCA). Using the seven absorbance measurements [time zero, (Tz), control growth, (C), and test growth in the presence of drug at the five concentration levels (Ti)], the percentage growth is calculated at each of the drug concentrations levels.
(§4) Percentage growth inhibition is calculated as: [(Ti−Tz)/(C−Tz)]×100 for concentrations for which Ti>/=Tz (1) [(Ti−Tz)/Tz]×100 for concentrations for which Ti<Tz (2)
(§5) Growth inhibition of 50% (GI50) is calculated from [(Ti−Tz)/(C−Tz)]×100=50 (3)
(§6) which is the drug concentration resulting in a 50% reduction in the net protein increase (as measured by SRB staining) in control cells during the drug incubation.
(§7) The drug concentration resulting in total growth inhibition (TGI) is calculated from Ti=Tz (4)
(§8) The LC50 (concentration of drug resulting in a 50% reduction in the measured protein at the end of the drug treatment as compared to that at the beginning) indicating a net loss of cells following treatment is calculated from [(Ti−Tz)/Tz]×100=−50 (5)
(§9) Values are calculated for each of these three parameters if the level of activity is reached; however, if the effect is not reached or is exceeded, the value for that parameter is expressed as greater or less than the maximum or minimum concentration tested.

HCC-2998 = HCC-2998 (Colon)
Method: as §1, §2, §3, §4, §5, §6, §7, §8, §9

HCT-116 = HCT-116 (Colon)
Method: as §1, §2, §3, §4, §5, §6, §7, §8, §9

HS 578T = HS 578T (Breast)
Method: as §1, §2, §3, §4, §5, §6, §7, §8, §9

M14 = M14 (Melanoma)
Method: as §1, §2, §3, §4, §5, §6, §7, §8, §9

MCF7 = MCF7 (Breast)
Method: as §1, §2, §3, §4, §5, §6, §7, §8, §9

MDA-MB-231/ATCC = MDA-MB-231/ATCC (Breast)
Method: as §1, §2, §3, §4, §5, §6, §7, §8, §9

MDA-MB-435 = MDA-MB-435 (Melanoma)
Method: as §1, §2, §3, §4, §5, §6, §7, §8, §9

NCI-H322M = NCI-H322M (Non-Small Cell Lung)
Method: as §1, §2, §3, §4, §5, §6, §7, §8, §9

NCI-H460 = NCI-H460 (Non-Small Cell Lung)
Method: as §1, §2, §3, §4, §5, §6, §7, §8, §9

NCI/ADR-RES = NCI/ADR-RES (Ovarian)
Method: as §1, §2, §3, §4, §5, §6, §7, §8, §9

OVCAR-5 = OVCAR-5 (Ovarian)
Method: as §1, §2, §3, §4, §5, §6, §7, §8, §9

OVCAR-8 = OVCAR-8 (Ovarian)
Method: as §1, §2, §3, §4, §5, §6, §7, §8, §9

SF-268 = SF-268 (CNS)
Method: as §1, §2, §3, §4, §5, §6, §7, §8, §9

SK-MEL-2 = SK-MEL-2 (Melanoma)
Method: as §1, §2, §3, §4, §5, §6, §7, §8, §9

SR = SR (Leukemia)
Method: as §1, §2, §3, §4, §5, §6, §7, §8, §9

UACC-257 = UACC-257 (Melanoma)
Method: as §1, §2, §3, §4, §5, §6, §7, §8, §9

[1] = Homo sapiens, read-out: LC50 (the source's name)

## CC(C)(C)NC1CCN(c2cc(-c3ccc(Cl)cc3)nc3ccccc23)CC1.Cl.Cl [XII-4, 2-(4-chloro-phenyl)-4-(4-N-tert-butylamino-piperidin-1-yl)quinoline dihydrochloride]
DU-145
  Growth percent at 10 μM: − (cell growth % > 80)
HCC-2998
  Growth percent at 10 μM: ++++ (cell growth 0 > % < 20)
HCT-116
  Growth percent at 10 μM: +++ (cell growth 20 > % < 40)
HS 578T
  Growth percent at 10 μM: + (cell growth 60 > % < 80)
M14
  Growth percent at 10 μM: ×××× (cell growth −60 < % > −80)
MCF7
  Growth percent at 10 μM: ++ (cell growth 40 > % < 60)
MDA-MB-231/ATCC
  Growth percent at 10 μM: ×× (cell growth −20 < % > −40)
MDA-MB-435
  Growth percent at 10 μM: ++++ (cell growth 0 > % < 20)
NCI-H322M
  Growth percent at 10 μM: ++ (cell growth 40 > % < 60)
NCI-H460
  Growth percent at 10 μM: ++ (cell growth 40 > % < 60)
NCI/ADR-RES
  Growth percent at 10 μM: + (cell growth 60 > % < 80)
OVCAR-5
  Growth percent at 10 μM: ++ (cell growth 40 > % < 60)
OVCAR-8
  Growth percent at 10 μM: − (cell growth % > 80)
SF-268
  Growth percent at 10 μM: + (cell growth 60 > % < 80)
SK-MEL-2
  Growth percent at 10 μM: − (cell growth % > 80)
SR
  Growth percent at 10 μM: ++++ (cell growth 0 > % < 20)
UACC-257
  Growth percent at 10 μM: ××× (cell growth −40 < % > −60)

## CCN(CC)C1CCN(C(C)c2cc(-c3ccccc3)nc3ccccc23)CC1.Cl.Cl (stereo not shown) [XIX-3, 2-phenyl-4-{1-[4-(N,N-diethylamino)piperidin-1-yl]-eth-1-yl}quinoline dihydrochloride]
DU-145
  TGI: 28 µM
  Growth percent at 10 μM: − (cell growth % > 80)
DU-145; Homo sapiens
  GI50: 14 µM
DU-145; [1]
  CC50: 54 µM
HCC-2998
  TGI: 13 µM
  Growth percent at 10 μM: ++ (cell growth 40 > % < 60)
HCC-2998; Homo sapiens
  GI50: 4 µM
HCC-2998; [1]
  CC50: 44 µM
HCT-116
  TGI: 19 µM
  Growth percent at 10 μM: ++ (cell growth 40 > % < 60)
HCT-116; Homo sapiens
  GI50: 5 µM
HCT-116; [1]
  CC50: 51 µM
HS 578T
  TGI: 35 µM
  Growth percent at 10 μM: + (cell growth 60 > % < 80)
HS 578T; Homo sapiens
  GI50: 11 µM
  LC50 (concentration killing 50% of cells): 100 µM
M14; Homo sapiens
  GI50: 2 µM
M14; [1]
  CC50: 8 µM
M14
  TGI: 4 µM
  Growth percent at 10 μM: ××× (cell growth −40 > % < −60)
MCF7; Homo sapiens
  GI50: 8 µM
  LC50 (50% lethal concentration): 56 µM
MCF7
  TGI: 22 µM
  Growth percent at 10 μM: ++ (cell growth 40 > % < 60)
MDA-MB-231/ATCC; Homo sapiens
  GI50: 3 µM
MDA-MB-231/ATCC; [1]
  CC50: 47 µM
MDA-MB-231/ATCC
  TGI: 14 µM
  Growth percent at 10 μM: ++ (cell growth 40 > % < 60)
MDA-MB-435; Homo sapiens
  GI50: 2 µM
MDA-MB-435; [1]
  CC50: 14 µM
MDA-MB-435
  TGI: 5 µM
  Growth percent at 10 μM: ++++ (cell growth % < 20)
NCI-H322M; Homo sapiens
  GI50: 11 µM
NCI-H322M; [1]
  CC50: 52 µM
NCI-H322M
  TGI: 24 µM
  Growth percent at 10 μM: + (cell growth 60 > % < 80)
NCI-H460; Homo sapiens
  GI50: 7 µM
NCI-H460; [1]
  CC50: 54 µM
NCI-H460
  TGI: 22 µM
  Growth percent at 10 μM: + (cell growth 60 > % < 80)
NCI/ADR-RES; Homo sapiens
  GI50: 12 µM
  LC50 (concentration giving 50% net cell kill): 56 µM
NCI/ADR-RES
  TGI: 26 µM
  Growth percent at 10 μM: + (cell growth 60 > % < 80)
OVCAR-5; Homo sapiens
  GI50: 13 µM
OVCAR-5; [1]
  CC50: 58 µM
OVCAR-5
  TGI: 28 µM
  Growth percent at 10 μM: + (cell growth 60 > % < 80)
OVCAR-8; Homo sapiens
  GI50: 14 µM
OVCAR-8; [1]
  CC50: 62 µM
OVCAR-8
  TGI: 30 µM
  Growth percent at 10 μM: + (cell growth 60 > % < 80)
SF-268; Homo sapiens
  GI50: 10 µM
SF-268; [1]
  CC50: 55 µM
SF-268
  TGI: 24 µM
  Growth percent at 10 μM: + (cell growth 60 > % < 80)
SK-MEL-2; Homo sapiens
  GI50: 3 µM
SK-MEL-2; [1]
  CC50: 27 µM
SK-MEL-2
  TGI: 7 µM
  Growth percent at 10 μM: ++ (cell growth 40 > % < 60)
SR; Homo sapiens
  GI50: 3 µM
SR; [1]
  CC50: 49 µM
SR
  TGI: 7 µM
  Growth percent at 10 μM: × (cell growth 0 > % > −20)
UACC-257; Homo sapiens
  GI50: 2 µM
UACC-257; [1]
  CC50: 8 µM
UACC-257
  TGI: 4 µM
  Growth percent at 10 μM: ××× (cell growth −40 > % < −60)
